# In article PMC11738990, “A small-molecule TNIK inhibitor targets fibrosis in preclinical and clinical models” (Nature Biotechnology, 2024):
# Values joined by “and” are separate entries in the source; they are usually repeats but may differ in a detail not shown here. Equal entries are not always repeated.
# Key:
# C57BL/6 mice [1] = test: LPS-induced acute lung injury model; assay type: in vivo, mouse; details: G3 Dex 10mpk BID; individual animals, Fig 3E-F; listed as Dex;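 also: bronchoalveolar lavage fluid sampled one day after intratracheal LPS challenge, cytokines measured by ELISA in supernatant, lymphocytes counted on Diff-Quick stained cytospin smears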
# Description: One day before the first experimental day, animals were grouped. All mice were anesthetized with Zoletil–xylazine (50 mpk and 10 mpk, i.p.). At 0 h, mice received LPS at a dose of 50 μl as 50 μg per mouse (groups 2–5, n = 8 per group) or 50 μl saline (group 1, n = 8 per group) by intratracheal administration. […] In the dexamethasone group (group 5), animals were treated with dexamethasone both 2 h before and 4 h after the LPS challenge. Twenty-four hours after the LPS challenge, animals were euthanized, and BALF samples were collected.
# (§1) Mice were first anesthetized with Zoletil–xylazine (50 mpk and 10 mpk, i.p.). Next, a 1.5–2-cm longitudinal incision was made on the ventral side of the neck to expose the trachea by blunt dissection, and curved forceps were placed underneath the trachea. A 10–12-cm piece of suture was then threaded underneath the trachea using forceps. The ends of the suture were then pulled cranially to ‘stretch’ the trachea toward the surgeon. A 20-G needle was then used to poke a hole in the trachea as close to the larynx as possible. A 22-G blunt stainless steel needle connected to PE tubing was placed in the hole and inserted approximately 5–8 mm into the trachea. The cannula was secured in the trachea by tying the suture around it with an overhand knot. A 1-ml syringe containing 0.4 ml saline was gently pushed forward and backward three times to recover BALF fluid. BALF was transferred into empty tubes and stored on ice. This process was repeated twice with 0.3 ml saline for a total volume of 1 ml.
# (§2) Total cell numbers were counted with a standard hemocytometer by mixing 20 μl BALF with 20 μl trypan blue. Cytospins were prepared by cytocentrifugation using Cytospins at 106g for 5 min, and then smears of BALF cells were stained with Diff-Quick stain. Cell differentiation was performed by counting at least 400 cells using standard hemocytologic criteria to classify them as alveolar macrophages or monocytes, neutrophils, eosinophils or lymphocytes. The rest of the BALF fluid was centrifuged, and supernatants were collected and stored at −80 °C for cytokine, chemokine and total protein analysis.
# (§3) From the collected BALF, concentrations of cytokines were measured from mice in groups 2–7 killed on day 28. Mouse BALF cytokines and chemokines were measured using the ELISA Analysis Kit (Sinobest Bio). Mouse BALF soluble collagen was measured using the Soluble Collagen kit (Biocolor). Mouse lung hydroxyproline content was measured using the Hydroxyproline Assay Kit (Njjcbio).
# [2] = tested on: cyclin-dependent kinase (CDK)2; details: 0.1 μM; cited from earlier work
# C57BL/6 mice [3] = test: Bleomycin-induced lung fibrosis model; assay type: in vivo, mouse; details: individual animals
# Description: (§4) Mice received bleomycin on day 1 at a dose of 0.66 mg per kg (equivalent to 1 U per kg), in a volume of 50 μl by intratracheal administration, or received saline (sham group). On day 7, dosing with the corresponding compounds was started. The vehicle group (group 1) was treated with 0.5% methylcellulose BID. […] On days 5 and 21, lung function measurement was performed. On day 28, all animals were killed, and blood and tissue samples were collected along with BALF.
# (§5) Lung function was measured according to the HDB standard protocol. Expiratory time, relaxation time, peak expiratory flow and peak inspiratory flow were collected and used to calculate Penh data.
# as §1, §2, §3
# Left lung lobes were removed from each mouse and fixed in 10% NBF solution, embedded in paraffin and processed to obtain 4-μm sections for staining with H&E. H&E-stained slides were scanned using an Aperio ScanScope Model CS2 (Leica) at ×200 magnification. Images were then opened in the HALO Plus 5 workstation (version 2.3, Indica Labs) program. Using the pen annotation tool, the whole-lung section was selected as an annotation layer. The area of vessels was defined as background using the exclusion drawing tool. The total inflammation area was quantified by selecting the dark blue inflammation cells using the pen annotation tool manually. The percentage of H&E staining (inflammation area/total area of the lung) in the selected annotation was then calculated using the program.
# Masson’s trichrome staining was conducted using a ready-to-use kit (Trichrome Stain (Masson) Kit, HT15, Sigma-Aldrich) as described by the manufacturer.
# Lung sections were cut at a thickness of 4 μm, dried in an oven for 1 h and stained with M&T using our standard protocol.
# C57BL/6 mice [4] = test: Bleomycin-induced lung fibrosis model, combination with pirfenidone; assay type: in vivo, mouse; details: PFD 60 BID
# Description: as §4, §5
# Lung sections were cut at a thickness of 4 μm, dried in an oven for 1 h and stained with M&T using our standard protocol. Briefly, sections were stained with Weigert’s iron hematoxylin working solution for 10 min, stained in Biebrich scarlet–acid fuchsin solution for 10 min, differentiated in phosphomolybdic–phosphotungstic acid solution for 5 min or until the collagen was not red, transferred to aniline blue solution, stained for 1 min and then dedifferentiated in 1% acetic acid solution. Next, sections were dehydrated and coverslipped for subsequent image analysis. For image analysis of collagen deposition, Masson’s trichrome-stained slides were scanned by using Aperio ScanScope Model CS2 (Leica) at ×200 magnification. Images were then opened with HALO. Using the pen tool, the whole left lung section was selected as an annotation layer. The area occupied by blue collagen fibers was measured using the pen tool. The percentage of fibrosis (positive areas) in the selected annotation was then calculated with the program. Fibrosis was expressed as a percentage per lung section.
# Sections (4 μm thick) were placed on slides, and, after overnight drying, paraffin was removed with xylene. Next, sections were placed in a graded ethanol series and immersed in distilled water. After heat-induced citrate antigen (pH 6.0) unmasking, sections were immersed in 3% hydrogen peroxide solution for 5 min. […] Next, secondary antibodies conjugated to HRP were added. For image analysis of fibrosis, stained sections were used and scanned with the Aperio CS2 Scanner machine. Images were then opened with HALO. Using the pen tool, the whole left lung section was selected as an annotation layer. The bronchus was excluded in the annotation layer. The area occupied by collagen fibers was measured using the ‘Area Quantification v2.1.3’ module. The percentage of positive areas in the selected annotation was then calculated using the program.
# Sprague Dawley rats = test: Bleomycin-induced lung fibrosis model, inhalation administration; assay type: in vivo, rat; details: Pirfenidone 350 mg/kg; individual animals, Fig 4
# Description: On day 1 of the study, bleomycin hydrochloride was administered to 8–9-week-old Sprague Dawley rats at a final concentration of 1.5 mg ml^−1 in sodium chloride solution (dosed volume at 1.0 ml per kg) by intratracheal atomization (once in the morning and once in the afternoon) to build the pulmonary fibrosis model.
# A German PARI compression atomizer (PARI TurboBOY) was set at an aerosol flow rate of 9–10 l min^−1. […] The dilution flow of aerosol was set at 0 l min^−1, and the pumping-out flow from the chamber was set at 6 l min^−1. The fluid rate was set at 0.5 ml min^−1 for test article replenishment. Before nebulization, aerosol-generation conditions were validated three times.
# And these parameters were recorded in real time during the experiment.
# For concentration assessment, a glass fiber filter membrane (φ = 37 mm) was used to measure aerosol concentrations during drug administration from approximately day 8 to day 28. Sampling was taken at 5 min (±1 min) after drug administration from a random exposure port. […] Aerosol particle size parameters were calculated with the system software: median mass aerodynamic diameter (MMAD), geometric standard deviation, fine particle fraction (percentage of fine particles with MMAD < 5 μm), etc.
# On day 29 and before euthanasia, animals were anesthetized with chloral hydrate (90 mg ml^−1, 5 ml per kg, i.p.). Necks were cut longitudinally at the middle to isolate trachea, and a catheter was intubated into the trachea toward the tail direction and fixed with a suture thread. The anesthetized animals were placed into the plethysmography chamber, to which the airway was connected. The AniRes2005 animal lung function-analysis system was used to assess parameters including FVC, airway resistance and pulmonary compliance. The ventilator respiration rate was set to 65 beats per minute; the respiration ratio was set to 20:10; the negative pressure controller was set to 30 cm H2O. FVC detection was set to pressure-control mode, while pressure was set to 30 cm H2O. The startup mode was selected to automatically detect at the end of breath, and the ‘Start’ button was clicked to passively inhale and then turned to exhale after reaching the set pressure value. Next, the ‘Stop’ button was clicked to complete an FVC detection. Each animal was evaluated for FVC at least five times. The final result was the mean value after the maximum and minimum data were excluded for analysis.
# C57BL/6 mice [5] = test: Unilateral ureteral obstruction (UUO) kidney fibrosis model; details: SB525334 100 mg/kg QD, individual animals, Fig 5C-D;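 also: mice had the left ureter ligated on day 0, received treatment from day 0 through day 14 and were killed on day 14 for kidney analysis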
# Description: The surgery took place on two separate days. Mice were divided into two slots based on their body weight before the day of the surgery. On day 0 (day of surgery), UUO surgery was performed after administration of three types of mixed anesthetic agents (medetomidine, midazolam, butorphanol). Mice were shaved at the incision site, the abdomen was cut open, and the left ureter was exteriorized and ligated with 4-0 silk sutures at two points. Finally, the peritoneum and the skin were closed with sutures.
# Treatments were applied from day 0 to day 14. And animals were killed on day 14, and blood and tissue samples were collected.
# Frozen kidney samples were processed by an alkaline acid hydrolysis method as follows. […] Next, AC buffer (2.2 M acetic acid and 0.48 M citric acid, 400 μl) was added to the samples, followed by centrifugation to collect the supernatant. […] The samples were then mixed with Ehrlich’s solution (400 μl) and heated at 65 °C for 20 min to develop color. After samples were cooled on ice and centrifuged to remove precipitates, the optical density of each supernatant was measured at 560 nm. Hydroxyproline concentrations were calculated from the hydroxyproline standard curve. Kidney hydroxyproline contents were expressed as μg per mg protein, and the amount of protein was determined using the BCA Protein Assay Kit (Thermo Fisher Scientific).
# At the end of the UUO study, the left kidney was fixed in Bouin’s solution and embedded in paraffin. Kidney sections were stained using picro-Sirius red solution (Waldeck). To quantify the interstitial fibrosis area, brightfield images in the corticomedullary region were captured using a digital camera (DFC295) at 200-fold magnification, and the positive areas in five fields per section were measured using ImageJ software (National Institute of Health).
# Paraffin sections were deparaffinized and hydrophilized with xylene, 100–70% alcohol series and RO water, and then circles were drawn around the kidney sections. […] After washing with PBS, kidney sections were treated with PBS with Tween-20 (PBST), followed by incubation with Block Ace (DS Pharma Biomedical) at room temperature for 10 min. The sections were incubated with the primary antibody (anti-collagen I) at 4 °C overnight. After washing with PBS, kidney sections were treated with PBST, followed by incubation with secondary antibody at room temperature for 30 min. After washing with PBS, kidney sections were fixed with 1% glutaraldehyde solution at room temperature for 1 min. After washing with RO water, kidney sections were treated with PBST and then colored using a chromogenic substrate (Simple Stain DAB, Nichirei Bioscience). After washing with RO water, kidney sections were immersed in an eightfold-diluted hematoxylin solution for 1 min and washed with RO water immediately. […] For scoring of IHC analyses, brightfield images were captured using a digital camera (DFC295) at 200-fold magnification, and the score in one field per section was determined.
# [6] = G5 Nintedanib 60mpk QD, Fig 3B-C
smiles,measurement,setting,value
"C[C@@H]1C[C@H]2[C@@H]3CCC4=CC(=O)C=C[C@]4(C)[C@@]3(F)[C@@H](O)C[C@]2(C)[C@@]1(O)C(=O)CO [Dexamethasone, reference compound]",IL-1β,C57BL/6 mice [1],90.1547 and 104.645 and 85.96 and 83.2907 and 79.4774 and 99.688 and 85.1973 and 77.1894
same,IL-4,C57BL/6 mice [1],38.428 and 35.2518 and 35.7056 and 41.1504 and 38.1255 and 36.613 and 38.8817 and 44.3266
same,IL-6,C57BL/6 mice [1],27.9 and 24.66 and 28.93 and 26.28 and 30.56 and 33.5 and 31.73 and 30.41
same,IL-7,C57BL/6 mice [1],25.06 and 25.43 and 30.03 and 28.19 and 29.85 and 32.24 and 34.63 and 29.29
same,Lymphocytes,C57BL/6 mice [1],11000 and 9300 and 5750 and 9600 and 6400 and 32400 and 4950 and 10750
same,TNF-alpha,C57BL/6 mice [1],362.89 and 452.57 and 397.89 and 371.64 and 437.26 and 448.2 and 351.95 and 301.64
OC1CCC(Oc2cccc3cnc(Nc4ccc5nc[nH]c5c4)nc23)CC1 (stereo not drawn) [NCB-0846],inhibition,[2],> 80%
"COC(=O)c1ccc2c(c1)NC(=O)/C2=C(\Nc1ccc(N(C)C(=O)CN2CCN(C)CC2)cc1)c1ccccc1 [Nintedanib, reference compound]",HE staining (inflammation area),C57BL/6 mice [3]; 60mpk QD,0.45 and 0.15 and 0.63 and 0.09 and 1.34 and 0.26 and 0.72 and 0.83 and 1.48 and 0.9
same,IL-1beta in BALF,C57BL/6 mice [3]; 60mpk QD,168.67 and 169.31 and 175.04 and 171.22 and 152.11 and 187.14 and 147.65 and 164.21
same,IL-6 in BALF,C57BL/6 mice [3]; 60mpk QD,147.17 and 136.31 and 119.43 and 143.55 and 137.52 and 155.01 and 125.46 and 138.12 and 158.63
same,"monocytes, cell count in BALF",C57BL/6 mice [3]; 60mpk QD,87000 and 128700 and 121600 and 174600 and 58800 and 161100 and 39800 and 37000 and 99000 and 75600
same,"neutrophils, cell count in BALF",C57BL/6 mice [3]; 60mpk QD,0
same,Lung function (Penh),C57BL/6 mice [3]; [6],0.5478 and 2.603 and 0.6904 and 2.472 and 0.7934 and 0.9276 and 0.6395 and 0.7208 and 1.0675 and 0.6757 and 1.195 and 2.42 and 0.41
same,Masson Trichrome's staining,C57BL/6 mice [3]; [6],0.55 and 0.4 and 0.78 and 0.03 and 1.61 and 0.54 and 0.87 and 0.56 and 1.52 and 0.39
same,Modified Ashcroft Score,C57BL/6 mice [3]; [6],3.5 and 2.5 and 1.75 and 1.25 and 2.25 and 3.25 and 0.5
same,collagen I,C57BL/6 mice [3]; [6],2.73 and 0.02 and 0.37 and 0.05 and 0.16 and 0.9 and 0.94 and 0.03 and 0.07
same,α-SMA,C57BL/6 mice [3]; [6],0.19 and 0.04 and 0.06 and 0.17 and 0.42 and 0.08 and 0.45 and 0.15 and 0.22 and 0.14
"Cc1ccc(=O)n(-c2ccccc2)c1 [PFD, reference compound]",Modified Ashcroft Score,C57BL/6 mice [4],4.5 and 5.25 and 5 and 4.75 and 5.5 and 4.25
same,Cdyn,Sprague Dawley rats,0.3225 mL/cmH2O and 0.3123 mL/cmH2O and 0.3091 mL/cmH2O and 0.2795 mL/cmH2O and 0.2995 mL/cmH2O and 0.311 mL/cmH2O and 0.2781 mL/cmH2O and 0.3041 mL/cmH2O and 0.3215 mL/cmH2O and 0.2768 mL/cmH2O and 0.3388 mL/cmH2O and 0.3313 mL/cmH2O
same,FVC,Sprague Dawley rats,11.834 and 11.621 and 10.998 and 9.152 and 10.235 and 10.576 and 10.334 and 10.683 and 12.105 and 9.791 and 11.908 and 11.529
same,HE staining for inflammatory infiltration,Sprague Dawley rats,7.178 and 19.4033 and 79.9063 and 22.6394 and 11.901 and 21.4024 and 18.4629 and 10.7655 and 14.7132 and 7.539 and 10.0121 and 11.9271
same,MT staining for fibrosis,Sprague Dawley rats,10.0525 and 23.681 and 70.2292 and 22.9771 and 14.4065 and 16.7608 and 19.0061 and 11.0741 and 14.7041 and 7.51 and 11.2668 and 15.3486
same,Modified Ashcroft Score,Sprague Dawley rats,2.42 and 3.08 and 3.92 and 2.83 and 3.17 and 2.75 and 2 and 2.08 and 2.33 and 2.5
same,RL,Sprague Dawley rats,0.1938 cmH2O and 0.2018 cmH2O and 0.2011 cmH2O and 0.2233 cmH2O and 0.2084 cmH2O and 0.2023 cmH2O and 0.2267 cmH2O and 0.2069 cmH2O and 0.196 cmH2O and 0.2278 cmH2O and 0.184 cmH2O and 0.1887 cmH2O
"Cc1cccc(-c2[nH]c(C(C)(C)C)nc2-c2ccc3nccnc3c2)n1 [SB525334, reference compound]",Collagen Type 1 score,C57BL/6 mice [5],1
same,Fibrosis area (sirius red positive area),C57BL/6 mice [5]; 100 mg/kg,0.79 and 1.13 and 0.97 and 0.36 and 0.56 and 0.41 and 0.76 and 0.48
same,Kidney hydroxyproline,C57BL/6 mice [5]; 100 mg/kg,3.88 and 4.04 and 4.13 and 2.51 and 3.1 and 4.54 and 4.91
